These results are taken from patent US9994552B2, “Compositions useful for treating disorders related to kit” (BLUEPRINT MEDICINES CORPORATION, priority 2013, dated 2018).

For one assay, the target named is D816V Kit (Homo sapiens (Human), UniProt P10721, D816V). Kind of assay: Kit D816V assay at Km (Caliper electrophoretic mobility shift). The settings on record: for IC50: D816V Kit 0.5 nM, 15 uM ATP (Km), 1 uM Srctide, 25 C, 90 minutes, read-out: INH-KITD816V ENZ-KM IC50 (nM) (Num); for times more potent against the D816V mutant than against the wild-type Kit: D816V Kit versus wild-type Kit, enzyme assays at Km. The format is biochemical. Here is the method:
(§1) In order to assess the activity of chemical compounds against the relevant kinase of interest, the Caliper LifeSciences electrophoretic mobility shift technology platform is used. Fluorescently labeled substrate peptide is incubated in the presence of kinase and ATP so that a […] proportion of the peptide is phosphorylated. At the end of the reaction, the mix of phosphorylated (product) and non-phosphorylated (substrate) peptides are passed through the microfluidic system of the Caliper EZ Reader 2, under an applied potential difference. The presence of the phosphate group on the product peptide provides a difference in mass and charge between those of the substrate peptide, resulting in a separation of the substrate and product pools in the sample. As the pools pass a LEDS within the instrument, these pools are detected and resolved as separate peaks. The ratio between these peaks therefore reflects the activity of the chemical matter at that concentration in that well, under those conditions.
(§2) The reaction was stopped by the addition of 70 ul of Stop buffer (100 mM HEPES pH 7.5, 0.015% Brij 35, 35 mM EDTA and 0.2% of Coating Reagent 3 (Caliper Lifesciences)). The plate was then read on a Caliper EZReader 2 (protocol settings: −1.9 psi, upstream voltage −700, downstream voltage −3000, post sample sip 35 s).

The target in another assay is wild type Kit (Homo sapiens (Human), UniProt P10721). Kind of assay: Kit wild type assay at Km (Caliper electrophoretic mobility shift). It counts as biochemical. The settings on record: wild type Kit 2 nM, 400 uM ATP (Km), 1 uM Srctide, 25 C, 90 minutes; read-out: INH-KITWT ENZ-KM IC50 (nM) (Num). Here is the method:
as §1, §2

For orientation: IC50 means the concentration at which inhibition is half-maximal.

wild type Kit, sequence (P10721 26-976): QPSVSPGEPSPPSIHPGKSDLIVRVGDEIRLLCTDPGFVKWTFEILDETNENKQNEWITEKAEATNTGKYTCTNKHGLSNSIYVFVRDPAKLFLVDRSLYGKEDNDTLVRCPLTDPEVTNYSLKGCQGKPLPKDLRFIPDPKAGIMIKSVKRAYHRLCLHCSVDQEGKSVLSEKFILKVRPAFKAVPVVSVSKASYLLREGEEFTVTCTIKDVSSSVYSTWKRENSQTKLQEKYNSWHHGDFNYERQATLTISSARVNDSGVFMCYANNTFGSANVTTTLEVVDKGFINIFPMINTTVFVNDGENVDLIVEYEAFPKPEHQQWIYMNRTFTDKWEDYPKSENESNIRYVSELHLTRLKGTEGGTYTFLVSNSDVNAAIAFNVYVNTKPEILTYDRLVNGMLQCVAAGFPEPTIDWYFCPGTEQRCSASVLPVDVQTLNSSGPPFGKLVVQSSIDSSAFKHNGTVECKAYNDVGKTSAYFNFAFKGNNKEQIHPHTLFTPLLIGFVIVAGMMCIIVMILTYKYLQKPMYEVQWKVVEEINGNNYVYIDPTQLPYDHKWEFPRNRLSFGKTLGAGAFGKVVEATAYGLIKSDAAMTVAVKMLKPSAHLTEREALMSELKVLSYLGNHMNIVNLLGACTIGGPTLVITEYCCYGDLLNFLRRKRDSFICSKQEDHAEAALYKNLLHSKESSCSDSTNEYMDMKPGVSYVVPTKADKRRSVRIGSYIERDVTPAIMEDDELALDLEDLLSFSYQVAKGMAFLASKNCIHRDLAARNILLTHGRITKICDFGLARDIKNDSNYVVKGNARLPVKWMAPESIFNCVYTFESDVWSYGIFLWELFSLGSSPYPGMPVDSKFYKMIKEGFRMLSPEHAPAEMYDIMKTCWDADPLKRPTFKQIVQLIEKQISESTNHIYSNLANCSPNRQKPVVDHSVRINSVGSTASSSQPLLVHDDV
D816V Kit, sequence (P10721 26-976 D816V): as the sequence (P10721 26-976) above, with D791V counted along it

In the case of `c1ccc(Cc2cnc(N3CCN(c4ncnc5c4CNC5)CC3)nc2)cc1` [Compound 2], the results for the IC50 at D816V Kit and on wild type Kit were more than 100 nM and more than 1000 nM, respectively.
As for `COc1cc2ncnc(N3CCN(c4ncc(OCC5CC5)cn4)CC3)c2cc1OC` [Compound 6], the IC50 is more than 100 nM on D816V Kit and more than 1000 nM at wild type Kit.
Taken in the same sequence, the figures for `COc1ccc2c(N3CCN(c4ncc(OCc5ccccc5)cn4)CC3)ncnc2c1` [Compound 8] were 10 to 100 nM and more than 1000 nM.
In the case of `COc1cc2ncnc(N3CCN(c4ncc(-c5ccccc5)cn4)CC3)c2cc1OC` [Compound 9], the figures for the IC50 at D816V Kit and on wild type Kit were more than 100 nM and more than 1000 nM, respectively.
Taken in the same sequence, the figures for `COc1ccc2ncnc(N3CCN(c4ncc(OCc5ccccc5)cn4)CC3)c2c1` [Compound 10] were more than 100 nM and more than 1000 nM.
The corresponding values for `COc1cc2ncnc(N3CCN(c4nccc(Cc5ccccc5)n4)CC3)c2cc1OC` [Compound 12] are more than 100 nM and more than 1000 nM.
Taken in the same sequence, the figures for `COc1cc2ncnc(N3CCN(c4ncc(Oc5ccccc5)cn4)CC3)c2cc1OC` [Compound 14, 6,7-dimethoxy-4-(4-(5-phenoxypyrimidin-2-yl)piperazin-1-yl)quinazoline] were 1.01 to 10 nM and 11 to 100 nM.
Consider `COc1cc2ncnc(N3CCN(c4ncc(Nc5ccccn5)cn4)CC3)c2cc1OC` [Compound 15], for which the figures for the IC50 on D816V Kit and at wild type Kit were 10 to 100 nM and 100 to 1000 nM, respectively.
Taken in the same sequence, the figures for `COc1cc2ncnc(N3CCN(c4ncc(Nc5cccnc5)cn4)CC3)c2cc1OC` [Compound 16] were 10 to 100 nM and 100 to 1000 nM.
Taken in the same sequence, the figures for `COc1cc2ncnc(N3CCN(c4ncc(Nc5ccncc5)cn4)CC3)c2cc1OC` [Compound 17] were more than 100 nM and more than 1000 nM.
As for `COc1cc2ncnc(N3CCN(c4ncc(OCC5CCCC5)cn4)CC3)c2cc1OC` [Compound 18], at D816V Kit, the IC50 is more than 100 nM and the “times more potent against the D816V mutant than against the wild-type Kit” value (“times more potent” below) was “at least 100 times”. At wild type Kit, the IC50 is more than 1000 nM.
`COc1cc2ncnc(N3CCN(c4ncc(-c5ccc(C#N)cc5)cn4)CC3)c2cc1OC` [Compound 19]: the IC50 at D816V Kit is more than 100 nM; on wild type Kit, more than 1000 nM. Besides, the “times more potent” value at D816V Kit was “less than 5 times”.
The corresponding values for `COc1cc2ncnc(N3CCN(c4ncc(Cc5ccccc5)cn4)CC3)c2cc1C(N)=O` [Compound 20] are 10 to 100 nM, more than 1000 nM and “at least 100 times”.
Take `COc1cc2ncnc(N3CCN(c4ncc(Cc5ccccc5)cn4)C(=O)C3)c2cc1OC` [Compound 21]: at D816V Kit, the IC50 was more than 100 nM and the “times more potent” value is “less than 5 times”. In addition, the IC50 at wild type Kit is more than 1000 nM.
Take `COc1cc2ncnc(N3CCN(c4ncc(CCc5ccccc5)cn4)CC3)c2cc1OC` [Compound 24]: the 50% inhibitory concentration (IC50) was in the range of 1.01 to 10 nM on D816V Kit and 100 to 1000 nM at wild type Kit.
For the molecule `COc1cc2ncnc(N3CCN(c4ncc(Cc5ccccc5C)cn4)CC3)c2cc1OC` [Compound 25], the IC50 at D816V Kit lay in the range of 10 to 100 nM; on wild type Kit, 100 to 1000 nM.
The corresponding values for `COc1cc2ncnc(N3CCN(c4ncc(Cc5ccccc5)cn4)C(C)C3)c2cc1OC` (stereo not drawn) [Compound 26] are 10 to 100 nM and 100 to 1000 nM.
For `COc1cc2ncnc(N3CCN(c4ncc(Cc5ccccc5)cn4)C[C@@H]3C)c2cc1OC` [Compound 27], the IC50 is more than 100 nM at D816V Kit and more than 1000 nM at wild type Kit.
Regarding `COc1cc2ncnc(N3CCN(c4ncc(Cc5ccccc5)cn4)C[C@H]3C)c2cc1OC` [Compound 28], at D816V Kit, the IC50 was more than 100 nM and the “times more potent” value is “less than 5 times”. For the same molecule, the IC50 on wild type Kit was more than 1000 nM.
With `COc1cc2ncnc(N3CCN(c4ncc(Cc5ccccc5)c(N)n4)CC3)c2cc1OC` [Compound 29], the IC50 on D816V Kit was less than 1 nM; at wild type Kit, less than 10 nM.
The corresponding values for `COc1cc2ncnc(N3CCN(c4ncc(Nc5ccc(C)cc5)cn4)CC3)c2cc1OC` [Compound 31] are 1.01 to 10 nM and 100 to 1000 nM.
Consider `COc1cc2ncnc(N3CCN(c4ncc(Nc5ccccc5C)cn4)CC3)c2cc1OC` [Compound 32], for which the IC50 was in the range of 10 to 100 nM on D816V Kit and 100 to 1000 nM on wild type Kit.
As to `COc1cc2ncnc(N3CCN(c4ncc(Nc5cccc(C)c5)cn4)CC3)c2cc1OC` [Compound 33], the IC50 at D816V Kit fell in the range of 10 to 100 nM; at wild type Kit, 100 to 1000 nM.
Regarding `COc1cc2ncnc(N3CCN(c4ncc(NCc5ccccc5)cn4)CC3)c2cc1OC` [Compound 34, N-benzyl-2-(4-(6,7-dimethoxyquinazolin-4-yl)piperazin-1-yl)pyrimidin-5-amine], the IC50 is 10 to 100 nM at D816V Kit and 100 to 1000 nM at wild type Kit.
Take `COc1cc2ncnc(N3CCN(c4ncc(OCc5ccccc5)cn4)CC3)c2cc1OC` [Compound 37, 4-(4-(5-(benzyloxy)pyrimidin-2-yl)piperazin-1-yl)-6,7-dimethoxyquinazoline]: the values for the IC50 at D816V Kit and at wild type Kit were 1.01 to 10 nM and 100 to 1000 nM, respectively.
With `COc1cc2ncnc(N3CCN(c4ncc(Cc5ccc(F)cc5)cn4)CC3)c2cc1OC` [Compound 38, 4-(4-(5-(4-fluorobenzyl)pyrimidin-2-yl)piperazin-1-yl)-6,7-dimethoxyquinazoline], the IC50 on D816V Kit lay in the range of 1.01 to 10 nM; on wild type Kit, 11 to 100 nM.
For the molecule `COc1cc2ncnc(N3CCN(c4ncc(Cc5cccc(F)c5)cn4)CC3)c2cc1OC` [Compound 39], the IC50 lay within 1.01 to 10 nM on D816V Kit and 100 to 1000 nM on wild type Kit.
Taken in the same sequence, the figures for `COc1cc2ncnc(N3CCN(c4ncc(Sc5ccccc5)cn4)CC3)c2cc1OC` [Compound 40] were 1.01 to 10 nM and 100 to 1000 nM.
For the molecule `COc1cc2ncnc(N3CCN(c4ncc(Br)c(OC)n4)CC3)c2cc1OC` [Compound 41], on D816V Kit, the IC50 is more than 100 nM and the “times more potent” value is on record as “less than 5 times”. Moreover, the IC50 at wild type Kit is more than 1000 nM.
Take `COc1cc2ncnc(N3CCN(c4ncc(OCc5cccs5)cn4)CC3)c2cc1OC` [Compound 43]: the IC50 on D816V Kit was in the range of 1.01 to 10 nM; on wild type Kit, 100 to 1000 nM.
Taken in the same sequence, the figures for `COc1cc2ncnc(N3CCN(c4ncc(OCc5ccsc5)cn4)CC3)c2cc1OC` [Compound 44] were 10 to 100 nM and 100 to 1000 nM.
The corresponding values for `COc1cc2ncnc(N3CCN(c4ncc(Cc5ccc(C#N)cc5)cn4)CC3)c2cc1OC` [Compound 45] are 1.01 to 10 nM and 100 to 1000 nM.
Take `COc1cc2ncnc(N3CCN(c4ncc(Cc5cccc(C#N)c5)cn4)CC3)c2cc1OC` [Compound 46]: the 50% inhibitory concentration (IC50) on D816V Kit was in the range of 10 to 100 nM; on wild type Kit, 100 to 1000 nM.
With `COc1cc2ncnc(N3CCN(c4ncc(Nc5ccc(C#N)cc5)cn4)CC3)c2cc1OC` [Compound 47], the IC50 is 10 to 100 nM at D816V Kit and more than 1000 nM on wild type Kit. On D816V Kit, the “times more potent” value was “at least 100 times”.
With `COc1cc2ncnc(N3C[C@H]4CC[C@@H](C3)N4c3ncc(Cc4ccccc4)cn3)c2cc1OC` [Compound 48, 4-((1R,5S)-8-(5-Benzylpyrimidin-2-yl)-3,8-diazabicyclo[3.2.1]octan-3-yl)-6,7-dimethoxyquinazoline], the IC50 was in the range of 1.01 to 10 nM on D816V Kit and 11 to 100 nM on wild type Kit.
Taken in the same sequence, the figures for `COc1cc2ncnc(N3CCN(c4ncc(N5CCc6ccccc65)cn4)CC3)c2cc1OC` [Compound 49] were 10 to 100 nM and 100 to 1000 nM.
Turning to `c1ccc(Cc2cnc(N3CCN(c4ncnc5c4CN(CC4CCNCC4)C5)CC3)nc2)cc1` [Compound 50], the IC50 at D816V Kit was more than 100 nM; at wild type Kit it was more than 1000 nM. Moreover, the “times more potent” value on D816V Kit is recorded as “less than 5 times”.
As for `COc1cc2ncnc(N3CCN(c4ncc(C(=O)Nc5ccccc5)cn4)CC3)c2cc1OC` [Compound 51], the IC50 on D816V Kit is 10 to 100 nM; on wild type Kit it was more than 1000 nM.
On to `COc1cc2ncnc(N3CCN(c4ncc(N(C)Cc5ccccc5)cn4)CC3)c2cc1OC` [Compound 52], for which the IC50 was in the range of 1.01 to 10 nM on D816V Kit and 11 to 100 nM at wild type Kit.
`COc1cc2ncnc(N3CCN(c4ncc(NCc5ccc(C)cc5)cn4)CC3)c2cc1OC` [Compound 53]: the IC50 lay within 10 to 100 nM on D816V Kit and 100 to 1000 nM on wild type Kit.
`COc1cc2ncnc(N3CCN(c4ncc(NCc5ccccc5C)cn4)CC3)c2cc1OC` [Compound 54]: the IC50 on D816V Kit was in the range of 10 to 100 nM; on wild type Kit, 100 to 1000 nM.
The corresponding values for `COc1cc2ncnc(N3CCN(c4ncc(NCc5cccc(C)c5)cn4)CC3)c2cc1OC` [Compound 55] are 10 to 100 nM and more than 1000 nM.
Turning to `COc1cc2ncnc(N3CCN(c4ncc(NC(C)c5ccccc5)cn4)CC3)c2cc1OC` (stereo not drawn) [Compound 56], the figures for the IC50 on D816V Kit and on wild type Kit were 10 to 100 nM and more than 1000 nM, respectively.
For `COc1cc2c(N3CCN(c4ncc(Cc5ccccc5)cn4)CC3)ncnc2cc1OC(F)F` [Compound 72], the concentration for half-maximal inhibition (IC50) at D816V Kit fell in the range of 10 to 100 nM.
Consider `COc1cc2ncnc(N3CCN(c4ncc(NCc5ccc6c(c5)OCO6)cn4)CC3)c2cc1OC` [Compound 83], for which the IC50 on D816V Kit was more than 100 nM.
